# Measurements: ChEMBL document CHEMBL4414617, “Identification of 2-Imidazopyridine and 2-Aminopyridone Purinones as Potent Pan-Janus Kinase (JAK) Inhibitors for the Inhaled Treatment of Respiratory Diseases” (J Med Chem, 2019)
# Tests used:
# [1] = molecular target: Tyrosine-protein kinase JAK1 (Homo sapiens, UniProt P23458)
# Description: Inhibition of recombinant human GST-tagged JAK1 (866 to 1154 residues) expressed in baculovirus expression system using PolyGT-Biotin as substrate measured after 3 to 20 hrs by HTRF assay
# [2] = test system: CHO-K1; assay: cells; format: ADME, cell-based; conditions: Cricetulus griseus, CHO-K1, 24 h
# Description: Cytotoxicity against CHOK1 cells assessed as reduction in ATP levels incubated for 24 hrs by ATPlite luminescence assay
# [3] = in vivo; conditions: Wistar, rat, po, 30 mg/kg
# [4] = physchem; conditions: octanol/water
# Description: Lipophilicity, log D of compound
# [5] = in vitro; conditions: PAMPA
# Description: Apparent permeability of compound at 20 uM measured after 5 hrs by PAMPA
# [6] = in vitro; conditions: human, plasma
# Description: Protein binding in human plasma by LC-MS/MS-based equilibrium dialysis method
# [7] = molecular target: Cav1.2 (Homo sapiens, UniProt Q13936); assay: in vitro
# Description: Inhibition of Cav1.2 (unknown origin) at 10 uM relative to control
# [8] = rat, in vivo, inhaled or intranasal, 3 mg/kg, 24 h
# Description: Free maximum concentration of drug in Sprague-Dawley rat at 3 mg/kg administered intratracheally as nanosuspension measured up to 24 hrs by LC-MS/MS analysis
# [9] = molecular target: hERG (KCNH2) (Homo sapiens, UniProt Q12809); assay: in vitro
# Description: Inhibition of human ERG at 10 uM relative to control
# [10] = in vivo; conditions: Wistar, rat, inhaled or intranasal
# [11] = in vivo; conditions: Wistar, rat, po, 30 mg/kg; remark: listed apart in the source
# [12] = in vitro; conditions: rat, plasma
# Description: Protein binding in rat plasma by LC-MS/MS-based equilibrium dialysis method
# [13] = in vivo; conditions: Wistar, rat, inhaled or intranasal; remark: listed apart in the source
# Description: Half life in Wistar rat at 0.41 mg/kg administered intratracheally as nanosuspension measured up to 24 hrs by LC-MS/MS analysis
# [14] = in vitro; conditions: human, microsomes
# Description: Drug metabolism in human liver microsomes at 5 uM incubated for 30 mins by UPLC-MS/MS analysis
# [15] = in vitro; conditions: rat, microsomes
# Description: Drug metabolism in rat liver microsomes at 5 uM incubated for 30 mins by UPLC-MS/MS analysis
# [16] = buffer
# Description: Solubility of the compound in PBS with 0.2% Tween80 using nanosuspension formulation
# [17] = buffer; remark: listed apart in the source
# Description: Solubility of the compound in sterile water with 0.2% Tween80 using nanosuspension formulation
# [18] = in vivo; conditions: Sprague-Dawley, rat, inhaled or intranasal, 3 mg/kg
# [19] = buffer, pH 1.2
# Description: Chemical stability of compound at pH 1.2 to 9
# [20] = molecular target: NaV1.5 (Homo sapiens, UniProt Q14524); assay: in vitro
# Description: Inhibition of NaV1.5 (unknown origin) at 10 uM relative to control
# Chain of Tyrosine-protein kinase JAK1 (P23458 whole entry): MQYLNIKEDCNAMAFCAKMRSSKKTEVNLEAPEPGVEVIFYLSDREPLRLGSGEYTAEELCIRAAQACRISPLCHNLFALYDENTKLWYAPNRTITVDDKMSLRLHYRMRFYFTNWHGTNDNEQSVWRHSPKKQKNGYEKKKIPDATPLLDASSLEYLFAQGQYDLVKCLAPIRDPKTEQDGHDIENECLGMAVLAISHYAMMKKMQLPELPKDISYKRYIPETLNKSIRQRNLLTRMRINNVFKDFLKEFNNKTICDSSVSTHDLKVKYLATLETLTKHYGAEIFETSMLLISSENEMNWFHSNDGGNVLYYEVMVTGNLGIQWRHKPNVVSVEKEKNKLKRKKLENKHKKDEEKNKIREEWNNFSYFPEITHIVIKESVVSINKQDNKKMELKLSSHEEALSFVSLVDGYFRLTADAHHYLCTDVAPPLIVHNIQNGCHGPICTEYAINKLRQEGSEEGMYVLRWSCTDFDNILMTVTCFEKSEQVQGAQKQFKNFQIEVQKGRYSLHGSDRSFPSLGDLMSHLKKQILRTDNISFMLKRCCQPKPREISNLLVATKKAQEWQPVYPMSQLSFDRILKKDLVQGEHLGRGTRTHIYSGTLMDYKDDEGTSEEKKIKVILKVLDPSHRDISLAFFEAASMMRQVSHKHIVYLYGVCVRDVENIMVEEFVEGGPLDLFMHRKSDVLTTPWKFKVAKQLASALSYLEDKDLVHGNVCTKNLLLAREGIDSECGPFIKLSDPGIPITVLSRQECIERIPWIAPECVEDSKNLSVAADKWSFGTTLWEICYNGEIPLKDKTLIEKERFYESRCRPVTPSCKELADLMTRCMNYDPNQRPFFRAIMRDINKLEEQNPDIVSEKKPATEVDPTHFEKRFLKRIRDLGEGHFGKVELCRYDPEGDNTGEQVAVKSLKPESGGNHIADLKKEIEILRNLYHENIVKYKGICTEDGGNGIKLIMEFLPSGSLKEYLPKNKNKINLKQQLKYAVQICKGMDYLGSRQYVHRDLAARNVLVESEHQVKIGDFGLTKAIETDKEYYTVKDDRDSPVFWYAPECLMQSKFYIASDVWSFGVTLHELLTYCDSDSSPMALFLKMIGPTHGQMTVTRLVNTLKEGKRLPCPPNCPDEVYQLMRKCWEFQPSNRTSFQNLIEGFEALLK
# Chain of Cav1.2 (Q13936 whole entry): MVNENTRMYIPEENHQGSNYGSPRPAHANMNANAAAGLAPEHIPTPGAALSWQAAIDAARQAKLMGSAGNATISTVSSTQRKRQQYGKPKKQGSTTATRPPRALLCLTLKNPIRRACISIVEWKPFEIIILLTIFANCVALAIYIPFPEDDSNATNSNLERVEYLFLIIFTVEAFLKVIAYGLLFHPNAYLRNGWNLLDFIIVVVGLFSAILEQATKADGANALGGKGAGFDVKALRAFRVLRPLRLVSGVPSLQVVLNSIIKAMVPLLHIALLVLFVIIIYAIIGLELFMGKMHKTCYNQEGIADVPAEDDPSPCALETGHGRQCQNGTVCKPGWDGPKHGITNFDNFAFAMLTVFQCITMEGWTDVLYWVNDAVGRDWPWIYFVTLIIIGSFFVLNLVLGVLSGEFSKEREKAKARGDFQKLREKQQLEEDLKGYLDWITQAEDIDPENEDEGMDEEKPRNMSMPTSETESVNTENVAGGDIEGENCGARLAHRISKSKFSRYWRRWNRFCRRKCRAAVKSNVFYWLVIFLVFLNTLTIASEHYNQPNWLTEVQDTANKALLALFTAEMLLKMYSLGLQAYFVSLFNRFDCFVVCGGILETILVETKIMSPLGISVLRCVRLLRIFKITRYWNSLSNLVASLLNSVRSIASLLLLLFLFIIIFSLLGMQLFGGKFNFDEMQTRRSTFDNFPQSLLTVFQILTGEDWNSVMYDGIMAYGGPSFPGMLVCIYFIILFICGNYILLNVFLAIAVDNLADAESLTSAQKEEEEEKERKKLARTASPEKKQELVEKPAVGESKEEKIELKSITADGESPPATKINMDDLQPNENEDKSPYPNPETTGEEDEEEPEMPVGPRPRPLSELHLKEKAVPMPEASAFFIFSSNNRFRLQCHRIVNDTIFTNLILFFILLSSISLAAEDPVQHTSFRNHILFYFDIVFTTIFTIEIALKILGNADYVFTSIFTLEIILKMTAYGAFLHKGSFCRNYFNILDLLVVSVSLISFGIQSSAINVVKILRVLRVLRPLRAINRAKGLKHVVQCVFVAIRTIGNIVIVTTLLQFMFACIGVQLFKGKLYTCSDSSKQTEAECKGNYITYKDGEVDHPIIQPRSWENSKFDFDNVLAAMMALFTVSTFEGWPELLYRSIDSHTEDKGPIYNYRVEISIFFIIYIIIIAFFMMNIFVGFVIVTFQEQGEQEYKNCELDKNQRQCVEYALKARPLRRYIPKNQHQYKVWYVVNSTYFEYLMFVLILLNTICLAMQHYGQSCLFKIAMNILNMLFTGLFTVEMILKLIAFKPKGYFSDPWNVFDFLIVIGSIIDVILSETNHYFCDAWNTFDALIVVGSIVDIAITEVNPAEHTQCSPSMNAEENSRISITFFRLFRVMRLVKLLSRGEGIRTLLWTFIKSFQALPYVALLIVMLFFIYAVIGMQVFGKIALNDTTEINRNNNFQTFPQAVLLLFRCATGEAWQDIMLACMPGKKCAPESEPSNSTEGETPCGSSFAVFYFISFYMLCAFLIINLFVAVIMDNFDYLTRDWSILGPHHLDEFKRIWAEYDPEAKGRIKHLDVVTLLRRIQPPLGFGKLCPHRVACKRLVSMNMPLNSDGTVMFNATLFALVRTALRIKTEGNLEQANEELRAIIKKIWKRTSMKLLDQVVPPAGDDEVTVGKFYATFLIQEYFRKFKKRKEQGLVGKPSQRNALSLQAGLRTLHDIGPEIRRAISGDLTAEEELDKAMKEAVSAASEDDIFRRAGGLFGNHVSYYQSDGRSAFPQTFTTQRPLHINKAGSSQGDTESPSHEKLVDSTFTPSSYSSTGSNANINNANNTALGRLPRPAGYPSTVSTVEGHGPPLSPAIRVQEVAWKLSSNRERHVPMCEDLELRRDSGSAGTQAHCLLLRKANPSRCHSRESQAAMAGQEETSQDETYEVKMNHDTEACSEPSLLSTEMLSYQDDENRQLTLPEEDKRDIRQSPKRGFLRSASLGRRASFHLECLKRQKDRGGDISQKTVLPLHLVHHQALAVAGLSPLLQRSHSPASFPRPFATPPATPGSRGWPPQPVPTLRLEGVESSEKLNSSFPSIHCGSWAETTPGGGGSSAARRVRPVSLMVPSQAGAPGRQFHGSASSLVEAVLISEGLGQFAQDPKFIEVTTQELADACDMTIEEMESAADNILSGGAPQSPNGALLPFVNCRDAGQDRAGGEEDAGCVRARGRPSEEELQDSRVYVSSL
# Chain of hERG (KCNH2) (Q12809 whole entry): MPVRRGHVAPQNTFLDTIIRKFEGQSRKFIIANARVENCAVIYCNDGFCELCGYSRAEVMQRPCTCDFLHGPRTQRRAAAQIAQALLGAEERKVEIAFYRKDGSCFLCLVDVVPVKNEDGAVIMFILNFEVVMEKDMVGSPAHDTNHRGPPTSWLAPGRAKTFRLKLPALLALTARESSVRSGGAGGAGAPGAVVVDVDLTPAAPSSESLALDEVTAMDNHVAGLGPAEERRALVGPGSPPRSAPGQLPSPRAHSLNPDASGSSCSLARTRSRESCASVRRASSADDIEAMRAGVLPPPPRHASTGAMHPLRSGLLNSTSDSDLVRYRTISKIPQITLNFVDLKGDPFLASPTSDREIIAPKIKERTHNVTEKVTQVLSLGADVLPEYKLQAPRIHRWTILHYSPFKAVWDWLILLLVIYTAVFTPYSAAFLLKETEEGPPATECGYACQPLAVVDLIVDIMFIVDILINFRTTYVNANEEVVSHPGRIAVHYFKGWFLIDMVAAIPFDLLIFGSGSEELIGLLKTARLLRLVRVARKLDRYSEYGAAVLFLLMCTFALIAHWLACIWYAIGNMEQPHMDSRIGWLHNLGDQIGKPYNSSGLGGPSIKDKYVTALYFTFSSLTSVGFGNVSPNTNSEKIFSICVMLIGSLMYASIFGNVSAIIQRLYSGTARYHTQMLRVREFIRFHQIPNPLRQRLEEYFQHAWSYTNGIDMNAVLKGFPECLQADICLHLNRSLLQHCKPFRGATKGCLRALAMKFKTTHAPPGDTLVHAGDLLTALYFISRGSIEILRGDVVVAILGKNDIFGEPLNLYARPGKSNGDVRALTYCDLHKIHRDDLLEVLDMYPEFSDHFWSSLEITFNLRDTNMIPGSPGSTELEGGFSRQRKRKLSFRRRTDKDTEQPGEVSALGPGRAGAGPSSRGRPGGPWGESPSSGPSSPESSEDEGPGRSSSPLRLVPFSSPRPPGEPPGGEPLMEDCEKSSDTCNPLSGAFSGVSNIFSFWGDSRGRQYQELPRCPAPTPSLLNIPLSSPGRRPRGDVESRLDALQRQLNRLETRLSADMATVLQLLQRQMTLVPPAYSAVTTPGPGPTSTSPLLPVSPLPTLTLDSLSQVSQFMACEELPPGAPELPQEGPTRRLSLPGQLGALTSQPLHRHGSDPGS
structure (smiles),measurement,setting,value
O=c1[nH]c2cnc(-c3cnc4ccc(F)cn34)nc2n1[C@@H]1CCOc2c(F)cccc21,IC50,[1],0.024 µM
same,IC50,[2],4 µM
C[C@H](c1ccc(F)cn1)n1c(=O)[nH]c2cnc(Nc3ccc[nH]c3=O)nc21,IC50,[2],> 100 µM
N#CC[C@H]1CC[C@H](n2c(=O)[nH]c3cnc(Nc4ccc[nH]c4=O)nc32)CC1,Cmax at 24 h,[3],7 ng/mL
same,logD,[4],2.1
same,"Papp at 5 h, 20 µM",[5],0.61 ×10⁻⁶ cm/s
same,fraction unbound,[6],0.17
same,inhibition at 10 µM,[7],< 15%
same,fCmax,[8],57 ng/mL
same,inhibition at 10 µM,[9],< 15%
same,AUC at 24 h,[10],118 ng·h/mL
same,AUC(0-inf) at 24 h,[11],32 ng·h/mL
same,fraction unbound,[12],0.21
same,half-life at 24 h,[13],16.3 h
same,"metabolised at 0.5 h, 5 µM",[14],21%
same,"metabolised at 0.5 h, 5 µM",[15],17%
same,IC50,[2],> 100 µM
same,solubility,[16],Soluble
same,solubility,[17],Soluble
same,AUC at 24 h,[18],406 ng·h/mL
same,Stability,[19],Stable
same,inhibition at 10 µM,[20],< 15%
O=c1[nH]c2cnc(-c3cnc4ccc(F)cn34)nc2n1[C@H]1CC[C@H](O)CC1,IC50,[2],100 µM
C[C@H](c1ncc(F)cn1)n1c(=O)[nH]c2cnc(-c3cnc4ccc(F)cn34)nc21,IC50,[1],0.0035 µM
same,IC50,[2],4.3 µM
O=c1[nH]cc(Cl)cc1Nc1ncc2[nH]c(=O)n([C@@H]3CCOc4c(F)cccc43)c2n1,IC50,[2],36 µM
C[C@H](c1ccc(F)cn1)n1c(=O)[nH]c2cnc(Nc3cc(F)c[nH]c3=O)nc21,IC50,[2],> 100 µM
O=c1[nH]cc(F)cc1Nc1ncc2[nH]c(=O)n([C@@H]3CCOc4c(F)cccc43)c2n1,IC50,[2],> 100 µM
Cc1c[nH]c(=O)c(Nc2ncc3[nH]c(=O)n([C@@H]4CCOc5c(F)cccc54)c3n2)c1,IC50,[2],51 µM
C[C@]1(O)CC[C@H](n2c(=O)[nH]c3cnc(-c4cnc5ccc(F)cn45)nc32)CC1,IC50,[1],0.079 µM
same,IC50,[2],16 µM
